Test results: ChEMBL document CHEMBL1201862, “PubChem BioAssay data set” (2004)
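How tested: cells in 96-well plates exposed to compound for 48 hours at five concentrations. Abbreviation: GI50, concentration required for 50% inhibition of growth.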 Active and inactive are the calls of the source. No stated cut-off is given here; in the data, active = GI50 up to about 1.1 µM and inactive = higher.

Experiments:
Assay in all cases: DTP human tumour cell line panel, 48 h
HCT-116 = tested on: HCT-116
NCI/ADR-RES = tested on: NCI/ADR-RES
MDA-MB-231 = tested on: MDA-MB-231
NCI-H522 = tested on: NCI-H522
NCI-H23 = tested on: NCI-H23
LOX IMVI = tested on: LOX IMVI
KM12 = tested on: KM12
SNB-19 = tested on: SNB-19
BT-549 = tested on: BT-549
OVCAR-5 = tested on: OVCAR-5
CAKI-1 = tested on: CAKI-1
M14 = tested on: M14
ACHN = tested on: ACHN
NCI-H226 = tested on: NCI-H226
HOP-62 = tested on: HOP-62
UACC-62 = tested on: UACC-62
T47D = tested on: T47D
EKVX = tested on: EKVX
HOP-92 = tested on: HOP-92

Measured: GI50

CC(=O)Nc1ccccc1C=C1c2ccccc2-c2ccccc21
inactive: HCT-116 29.7 µM | NCI/ADR-RES 18.7 µM | MDA-MB-231 17.7 µM | NCI-H522 20.2 µM | NCI-H23 25.2 µM | LOX IMVI > 100 µM | KM12 > 100 µM | SNB-19 17.8 µM | BT-549 24.8 µM | OVCAR-5 35.9 µM | CAKI-1 63 µM | M14 36.7 µM | ACHN 42.7 µM | NCI-H226 28 µM | HOP-62 19.5 µM | UACC-62 41.7 µM | T47D 30.4 µM | EKVX 38.8 µM

Cc1ccc(C)c2c1C/C(=C\c1ccccc1C(=O)O)C2=O
inactive: HCT-116 > 100 µM | NCI/ADR-RES > 100 µM | NCI-H522 > 100 µM | NCI-H23 > 100 µM | LOX IMVI 54.2 µM | KM12 > 100 µM | SNB-19 81.3 µM | BT-549 > 100 µM | OVCAR-5 > 100 µM | CAKI-1 > 100 µM | M14 > 100 µM | ACHN > 100 µM | NCI-H226 20.8 µM | HOP-62 > 100 µM | UACC-62 > 100 µM | T47D > 100 µM | HOP-92 > 100 µM | EKVX 45.7 µM

CN(C)c1ccc(/C=C/c2ccnc3ccccc23)cc1
inactive: HCT-116 39.8 µM | NCI/ADR-RES 64.3 µM | MDA-MB-231 23.3 µM | NCI-H23 39.4 µM | LOX IMVI 53.3 µM | KM12 55.8 µM | SNB-19 > 100 µM | BT-549 18.2 µM | OVCAR-5 > 100 µM | CAKI-1 > 100 µM | M14 65.8 µM | ACHN 40.3 µM | HOP-62 > 100 µM | UACC-62 43.1 µM | T47D 96.8 µM | HOP-92 93.3 µM | EKVX 49 µM

CN(C)c1ccc2oc(=O)c3ccccc3c2c1
inactive: HCT-116 40.9 µM | MDA-MB-231 17.1 µM | NCI-H522 55.8 µM | NCI-H23 22.9 µM | LOX IMVI > 100 µM | SNB-19 23.1 µM | BT-549 34.4 µM | OVCAR-5 > 100 µM | CAKI-1 28.9 µM | M14 > 100 µM | ACHN 24.3 µM | NCI-H226 46.7 µM | HOP-62 21 µM | UACC-62 99.8 µM | T47D > 100 µM | HOP-92 35.2 µM | EKVX 20.4 µM

CC1=C(C)C(=O)O[C@@H]([C@](C)(O)[C@]2(O)CC[C@@]3(O)[C@@H]4C[C@H](O)[C@]5(O)[C@@H](O)C=CC(=O)[C@]5(C)[C@H]4CC[C@]23C)C1
inactive: HCT-116 86.9 µM | MDA-MB-231 > 100 µM | NCI-H522 42.3 µM | NCI-H23 > 100 µM | LOX IMVI 58.5 µM | KM12 > 100 µM | SNB-19 > 100 µM | BT-549 > 100 µM | OVCAR-5 > 100 µM | CAKI-1 > 100 µM | M14 > 100 µM | ACHN > 100 µM | NCI-H226 > 100 µM | HOP-62 > 100 µM | UACC-62 47.6 µM | T47D > 100 µM | HOP-92 > 100 µM | EKVX > 100 µM

N#CC(C#N)/N=N/c1ccc(-c2nc3ccccc3s2)cc1
inactive: HCT-116 3.78 µM | NCI/ADR-RES 3.54 µM | NCI-H522 2.65 µM | NCI-H23 2.93 µM | LOX IMVI 7 µM | BT-549 5.19 µM | OVCAR-5 28 µM | CAKI-1 2.81 µM | M14 8.73 µM | ACHN 3.68 µM | T47D 2.22 µM | HOP-92 1.48 µM | EKVX 7.03 µM

N/C(=N\n1c(=S)[nH]c2ccccc2c1=O)Nn1c(=S)[nH]c2ccccc2c1=O
inactive: HCT-116 16.8 µM | NCI/ADR-RES 47.6 µM | MDA-MB-231 53.3 µM | NCI-H522 13.3 µM | NCI-H23 23.1 µM | LOX IMVI 18.8 µM | KM12 96.8 µM | SNB-19 88.3 µM | BT-549 20.3 µM | OVCAR-5 80.4 µM | CAKI-1 13.2 µM | M14 11.4 µM | ACHN 46.7 µM | NCI-H226 21.7 µM | HOP-62 36.4 µM | UACC-62 75 µM | T47D 23.4 µM | EKVX 67.6 µM

COc1ccc(/C=N/n2c(Cc3ccc(Cl)cc3)n[nH]c2=O)cc1
inactive: HCT-116 24.9 µM | NCI/ADR-RES 32.8 µM | MDA-MB-231 8.93 µM | NCI-H23 22 µM | KM12 > 100 µM | SNB-19 15.7 µM | BT-549 32.4 µM | OVCAR-5 29.5 µM | CAKI-1 30.8 µM | M14 45.7 µM | ACHN 45.1 µM | NCI-H226 36.2 µM | HOP-62 15.2 µM | UACC-62 52.2 µM | T47D 54.1 µM | HOP-92 17.3 µM | EKVX 30.1 µM

O=C(c1cccc2cc(O)ccc12)c1cn(CCN2CCOCC2)c2ccccc12
inactive: HCT-116 20 µM | MDA-MB-231 19.5 µM | NCI-H522 30.3 µM | NCI-H23 33.3 µM | LOX IMVI 20.6 µM | SNB-19 55.7 µM | BT-549 23.4 µM | OVCAR-5 29.5 µM | CAKI-1 39.4 µM | M14 20 µM | ACHN 33.7 µM | NCI-H226 39.9 µM | HOP-62 22 µM | UACC-62 17.7 µM | T47D 38.3 µM | HOP-92 31.4 µM | EKVX 28.1 µM

OC(COC(c1ccccc1)(c1ccccc1)c1ccccc1)C(O)CC1SCCS1 (centres undefined)
inactive: HCT-116 16.4 µM | NCI/ADR-RES 16.3 µM | MDA-MB-231 16.2 µM | NCI-H23 17.9 µM | LOX IMVI 13.5 µM | KM12 13 µM | SNB-19 21.7 µM | BT-549 20 µM | OVCAR-5 19.2 µM | CAKI-1 21.3 µM | M14 29.6 µM | ACHN 18.6 µM | NCI-H226 14.9 µM | HOP-62 12 µM | UACC-62 17.1 µM | T47D 14.1 µM | EKVX 11.2 µM

CC(=O)OCC1=C2C(OC(=O)C(C)C)CC3(COC(C)=O)OC3/C=C\C3(C)OC3C2OC1=O (centres undefined)
inactive: HCT-116 > 100 µM | MDA-MB-231 > 100 µM | NCI-H23 > 100 µM | LOX IMVI > 100 µM | KM12 > 100 µM | SNB-19 > 100 µM | BT-549 > 100 µM | OVCAR-5 > 100 µM | CAKI-1 > 100 µM | M14 > 100 µM | ACHN > 100 µM | NCI-H226 > 100 µM | HOP-62 > 100 µM | UACC-62 > 100 µM | T47D > 100 µM | EKVX > 100 µM

COc1cc2c(cc1OCCCOc1cc3c(cc1OC)C(=O)N1CCC[C@H]1C(=O)N3)N=C[C@@H]1CCCN1C2=O
inactive: HCT-116 26.4 µM | NCI/ADR-RES 76.7 µM | MDA-MB-231 14.9 µM | NCI-H522 1.73 µM | NCI-H23 23.6 µM | LOX IMVI 3.07 µM | KM12 16.4 µM | SNB-19 27.3 µM | BT-549 10.3 µM | OVCAR-5 25.1 µM | CAKI-1 29.9 µM | M14 20.3 µM | ACHN 17.1 µM | NCI-H226 14.6 µM | HOP-62 34.2 µM | UACC-62 6.62 µM | T47D 7.94 µM | EKVX 17 µM
